Measurements taken from patent US7285666B2, “Pyrazolo[1,5-a] pyridines and medicines containing the same” (Eisai R&D Management Co., Ltd., priority 2001, dated 2007).

What was measured:
[1] = system: CRF-dependent cAMP production in AtT-20 cells; assay: cAMP production inhibition experiment using AtT-20 cells; type: cell-based; details: Mus musculus, AtT20, 30 nM CRF, intracellular cAMP by HTRF, read-out: Adenylate cyclase activity IC50
Source text: <cAMP Production Inhibition Experiment Using AtT-20 Cells>
The AtT-20 cells were of a mouse pituitary gland tumor-derived cell line which is known to respond to Corticotropin-Releasing Factor (CRF), leading to activation of the intracellular adenylate cyclase system, production of cyclic AMP (cAMP), and release of adenocorticotropic hormone (ACTH) (Biochem. Biophys. Res. Com. 106, 1364-1371, 1982). For the experiment, the cells (1×10^5) were suspended in D-MEM medium (0.1% FBS) and seeded in a 96-well plate, phosphodiesterase inhibitor (IBMX, Calbiochem) was added to a final concentration of 1 mM, and were cultured at 37° C. for 30 minutes. A dilution of the test compound was added, culturing was continued for 30 minutes at 37° C., and CRF (30 nM) was added and culturing was continued for 30 minutes at 37° C. The cells were collected by centrifugation (500×g, 5 minutes) and lysed with lysis buffer (0.2% dodecyltrimethylammonium bromide), and the intracellular cAMP production was quantified by the HTRF method. A cAMP kit HTRF (CIS Diagnostics Co., Ltd.) was used for the cAMP quantification.
(2) Calculation of cAMP Production Inhibition
The cAMP production of cells to which 30 nM CRF had been added was defined as 100% (control), and the value for each specimen was represented as a percentage (% of control).

human CRFR1 = target: T1, human CRFR1 (Homo sapiens, UniProt P34998); assay: CRFR binding experiment (125I-sauvagine SPA, membrane fraction of CRFR1-expressing HEK293 cells); details: 125I-sauvagine displacement, read-out: CRF1 receptor binding affinity IC50
T1 construct: The full-length CRFR1 gene was obtained from a human brain cDNA library (QuickClone™, Clontech) by PCR; expressed in transfected cells
T1 sequence (P34998 24-415): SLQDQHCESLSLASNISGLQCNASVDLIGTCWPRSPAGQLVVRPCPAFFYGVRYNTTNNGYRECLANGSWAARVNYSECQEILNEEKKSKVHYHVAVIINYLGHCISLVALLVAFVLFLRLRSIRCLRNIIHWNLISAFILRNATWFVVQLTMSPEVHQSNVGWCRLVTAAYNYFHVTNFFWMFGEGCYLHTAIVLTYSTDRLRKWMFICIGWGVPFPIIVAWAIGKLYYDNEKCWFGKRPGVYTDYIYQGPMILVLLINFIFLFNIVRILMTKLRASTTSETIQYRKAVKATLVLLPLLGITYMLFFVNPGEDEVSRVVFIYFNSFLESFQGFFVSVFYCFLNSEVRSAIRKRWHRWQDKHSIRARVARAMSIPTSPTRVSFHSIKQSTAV
Method: <CRFR Binding Experiment>
(1) Preparation of CRFR-Expressing Cells
Membrane fraction of the cell highly expressing human CRFR1 was used as the experimental material for a CRFR binding experiment. The CRFR expressing cells were prepared in the following manner. The full-length CRFR1 gene was obtained from a human brain cDNA library (QuickClone™, Clontech) by PCR. The obtained DNA fragments were inserted into cloning vectors and the base sequences were determined. cDNA having the correct base sequence was then relinked to an expression vector (pcDNA3.1™, Invitrogen). The CRFR1 expression vector was introduced into HEK293 cells, and the resistant cells which grew in cell medium containing G418 (1 mg/ml) were cloned by limiting dilution. From these cloned cells, the clones with high binding affinity between the membrane fraction and sauvagine per unit of protein in the binding experiment described below were selected out and used for the final experiment.
(2) Preparation of Membrane Fraction
The cloned cells obtained in (1) were collected and disrupted with an ultrasonic generator in sonicate buffer (D-PBS(−) 10 mM MgCl2, 2 mM EGTA). The suspension obtained from ultrasonic disruption was centrifuged (46,000×g, 10 minutes), and the precipitate was resuspended in sonicate buffer and the same procedure was repeated. The final precipitate was then suspended in binding buffer (D-PBS(−) 10 mM MgCl2, 2 mM EGTA, 1.5% BSA, 0.15 mM bacitracin, 1× protease inhibitor cocktail (COMPLETE™, Boehringer)), and used as the membrane fraction after adjusting the protein concentration to 1.6 mg/ml.
The sauvagine binding experiment was conducted following the protocol of SPA™ (Amersham Pharmacia), using a 96-well plate. The experiment was conducted according to the SPA beads instruction manual. After allowing […] of the membrane fraction protein, 0.5 mg of SPA beads and […] of ^125I-sauvagine (Amersham Pharmacia) to stand at room temperature for 2 hours in the presence of the test compound, the mixture was centrifuged (1000×g, 5 minutes) and the radioactivity of each well was measured with a TopCount™ (Packard).
(4) Calculation of Binding Affinity
The radioactivity for non-radioactive sauvagine added in a 1000-fold excess was subtracted from each value as the non-specific binding, and the radioactivity of a sample without addition of the test substance (control) was defined as 100%, with each value represented as a percentage (% of control).

## CCCN(CCC)c1c(CC)nn2c(-c3ccc(OC)cc3Cl)cccc12 [Example 3, N-[7-(2-Chloro-4-methoxyphenyl)-2-ethylpyrazolo[1,5-a]pyridin-3-yl]-N,N-dipropylamine]
[1]
  IC50: 130 nM

## CCCN(CCC)c1c(CC)nn2c(-c3ccc(OC)cc3OC)cccc12 [Example 6, N-[7-(2,4-Dimethoxyphenyl)-2-ethylpyrazolo[1,5-a]pyridin-3-yl]-N,N-dipropylamine]
Human CRFR1
  IC50: 160 nM
[1]
  IC50: 200 nM

## CCCN(CCOC)c1c(CC)nn2c(-c3ccc(Cl)cc3Cl)cccc12 [Example 25, N-[7-(2,4-Dichlorophenyl)-2-ethylpyrazolo[1,5-a]pyridin-3-yl]-N-(2-methoxyethyl)-N-propylamine]
Human CRFR1
  IC50: 210 nM
[1]
  IC50: 550 nM

## CCc1nn2c(-c3ccc(Cl)cc3Cl)cccc2c1N(CCOC)CC(C)C [Example 27, N-[7-(2,4-Dichlorophenyl)-2-ethylpyrazolo[1,5-a]pyridin-3-yl]-N-isobutyl-N-(2-methoxyethyl)amine]
Human CRFR1
  IC50: 55 nM
[1]
  IC50: 300 nM

## CCCN(CCC)c1c(SC)nn2c(-c3ccc(Cl)cc3Cl)cccc12 [Example 103, N-[7-(2,4-Dichlorophenyl)-2-methylthiopyrazolo[1,5-a]pyridin-3-yl]-N,N-dipropylamine]
Human CRFR1
  IC50: 90 nM
[1]
  IC50: 400 nM

## COCCN(CC(C)C)c1c(SC)nn2c(-c3c(C)cc(C)cc3OC)cccc12 [Example 108, N-Isobutyl-N-[7-(2-methoxy-4,6-dimethylphenyl)-2-(methylsulfanyl)pyrazolo[1,5-a]pyridin-3-yl]-N-(2-methoxyethyl)amine]
Human CRFR1
  IC50: 50 nM
[1]
  IC50: 20 nM
